Experimental data: patent publication US20100093667A1, “SALTS OF HIV INHIBITOR COMPOUNDS” (Gilead Sciences, Inc., priority 2008, published 2010)

Test system: HIV-1 IIIB
Test: Anti-HIV-1 activity in MT-2 cells, virus-induced cytopathic effect (CellTiter-Glo)
Type: cell-based
Method: MT-2 cells were maintained in RPMI-1640 medium supplemented with antibiotics and 10% fetal bovine serum (FBS). MT-2 cells were infected with HIV-1 IIIB at a multiplicity of infection (moi) of 0.01 and added to 96-well plates with serial dilutions of tested compounds at a density of 20,000 cells/well. […] Activity against NRTI-resistant mutants was determined in parallel with wild-type control virus and fold change in EC50 was calculated.

Compound: CCOC(=O)[C@H](C)N[P@](=O)(CO[C@@H]1C=C(F)[C@H](n2cnc3c(N)ncnc32)O1)Oc1ccccc1 (single isomer, unassigned) [Prodrug]
- EC50 (Human immunodeficiency virus 1, MT2, 120 h, MT-2 cells, HIV-1 IIIB, 5-day incubation, mean ± SD): 150 ± 40 nM
- more potent than the parent compound (MT-2): 71 fold
